The record followed here is PubChem BioAssay (NCI).

Holding throughout (test): NCI anticancer screen, dose series, 48 h
Assay [1] concerns A549 NSCLC.
Assay [2] relates to ACHN renal.
Assay [3] deals with HOP-92 NSCLC.
The test system of assay [4] is SF-268 CNS.
Assay [5] has as its system SF-539 CNS.
In assay [6] the test system is SNB-19 CNS.
Assay [7] deals with TK-10 renal.
The subject of assay [8] is UO-31 renal.
Assay [9] relates to MCF7 breast.
For assay [10], the system named is MALME-3M melanoma.

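All cell lines were grown in 96-well plates and treated with compound for 48 hours. TGI: total growth inhibition.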

As for `Cn1c(-c2ccc[se]2)ccc1-c1ccc(C=O)[se]1`, the TGI in assay [1] was greater than 100 µM; in assay [2] it was greater than 100 µM; in assay [3] it was greater than 82.1 µM; in [4] it was 59.1 µM; in [5], 23 µM; in [6], greater than 100 µM. Moreover, the values for the TGI in [7] and in [8] were 0.439 µM and greater than 100 µM, respectively.

As to `C/C=C1/CN2CCC34c5ccccc5N(C)C23C2CC1C4(C(=O)OC)C(OC(C)=O)O2` (stereo not given), the TGI in assay [1], in assay [2], in assay [3], in assay [9], in [4] and in assay [5] was greater than 100 µM throughout. The TGI in assay [6], in [7] and in assay [8] was greater than 100 µM in each case.

As for `Cc1ncc([N+](=O)[O-])n1CC[N+](C)([O-])CCCCn1ccnc1[N+](=O)[O-]` (stereo not given), the TGI in assay [1], in assay [2], in assay [10], in assay [9], in [4] and in assay [5] was greater than 100 µM each time. Further, the TGI in assay [7] and in [8] was greater than 100 µM each time.

For `CCn1c2nc(=O)n(CCCCCCCCSC(c3ccccc3)(c3ccccc3)c3ccccc3)c(=O)c-2nc2ccccc21`, the TGI in assay [2] was 60.8 µM; in [3], 53.1 µM; in [9] it was greater than 100 µM; in [4], greater than 100 µM; in assay [5], greater than 100 µM; in assay [7], greater than 100 µM. Besides, the TGI in [8] is greater than 100 µM.

As for `Cc1cc2c(c(C(=O)NCC(=O)N[C@@H](C)C(=O)OCc3ccccc3)c1)Oc1c(cc(C)cc1C(=O)NCC(=O)N[C@@H](C)C(=O)OCc1ccccc1)S2`, the TGI was greater than 100 µM in assay [1]; greater than 100 µM in assay [2]; 44.2 µM in [10]; greater than 100 µM in assay [9]; greater than 100 µM in assay [4]; greater than 100 µM in [6]. In assay [8], this molecule gave a TGI greater than 100 µM.

Turning to `Cc1cc2nc3c(C#N)c4c(c(Nc5ccc(F)cc5)n3c2cc1C)CCC4`, the TGI in assay [1], in [2], in assay [10], in assay [9], in assay [4] and in assay [5] was greater than 100 µM each time. Also, the TGI in assay [6] and in assay [7] was greater than 100 µM each time.

Consider `Cc1c(Cc2ccccc2)n(C(C)OCCN(OC(=O)Oc2ccccc2)C(=O)Oc2ccccc2)c(=O)[nH]c1=O` (stereo not given), for which the TGI in assay [1] turned out to be 73.9 µM; in assay [2] it was 57.3 µM; in assay [3], 29.7 µM; in [9], 63.8 µM; in [4] it was 40.3 µM; in assay [5] it was 37.4 µM. Moreover, the TGI is greater than 100 µM in [6] and 29.3 µM in [8].

As to `COC(C/C(=C/CO[Si](C(C)C)(C(C)C)C(C)C)C(=O)N(C(=O)OC(C)(C)C)c1ccccc1I)OC`, the TGI in assay [1] was greater than 100 µM; in [2] it was greater than 100 µM; in assay [3], greater than 100 µM; in [9], 41.2 µM; in [4], greater than 100 µM; in assay [6], greater than 100 µM. In addition, the TGI in [7] and in [8] was greater than 100 µM each time.

For the molecule `Cn1c(-c2ccc(-c3cc(-c4cccs4)c(-c4cccs4)n3C)cc2)cc(-c2cccs2)c1-c1cccs1`, the TGI in [1], in assay [2], in assay [9], in assay [4], in assay [5] and in [6] was greater than 100 µM in each case. Also, the TGI in assay [7] and in assay [8] was greater than 100 µM in each case.

Turning to `CCOC(=O)/C=C/C(=O)O/C=C/[N+](=O)[O-]`, the TGI in assay [2], in [3], in assay [9], in [4], in assay [5] and in [7] was greater than 100 µM each time. The TGI in [8] is greater than 100 µM.

For the molecule `O=C(Cc1nc2ccc(C(=O)c3ccccc3)cc2[nH]c1=O)C(=O)Nc1nc2ccccc2[nH]1`, the TGI in [1] was greater than 100 µM; in assay [2], greater than 100 µM; in assay [3], 91.8 µM; in assay [10], greater than 100 µM; in [4] it was greater than 100 µM; in assay [5], greater than 100 µM. Moreover, the TGI in [6], in assay [7] and in assay [8] was greater than 100 µM each time.

On to `Cc1ccc(/C=C/C(=O)Oc2ccc(/C=C3\CCC/C(=C\c4ccc(OC(=O)/C=C/c5ccc(C)cc5)cc4)C3=O)cc2)cc1`, for which the TGI in assay [1], in assay [2], in assay [3], in [9], in assay [4] and in [5] was greater than 100 µM each time. The TGI in assay [6], in assay [7] and in [8] was greater than 100 µM throughout.

As to `Nc1nc(NCCOCP(=O)(O)O)c([N+](=O)[O-])c(=O)[nH]1`, the TGI in [1], in [2], in assay [3], in [10], in [4] and in [5] was greater than 100 µM each time. Moreover, the TGI in [6], in assay [7] and in [8] was greater than 100 µM throughout.

For `CN(C)CN1CSC(=S)N(CN(C)C)C1`, the TGI in assay [1], in [2], in assay [3], in assay [10], in assay [4] and in [6] was greater than 100 µM in each case. In addition, the TGI in assay [7] and in assay [8] was greater than 100 µM in each case.

Consider `Cc1ccccc1NC(=O)Cc1csc(N/N=C2\NC(=O)/C(=C/c3cccc([N+](=O)[O-])c3)S2)n1`, for which the TGI is 44.5 µM in assay [1]; 28.9 µM in assay [2]; 38.1 µM in assay [3]; greater than 100 µM in assay [9]; 33.4 µM in assay [5]; 34 µM in [6]. The TGI in assay [7] is 36.9 µM; in [8], 25.8 µM.

With `Clc1cc(-c2ccccc2)nc(Nc2nc3ccccc3[nH]2)n1`, the TGI in assay [1] is greater than 100 µM; in assay [2], 33.3 µM; in [3], 5.25 µM; in assay [10], 69.1 µM; in assay [4] it was 80.9 µM; in assay [5], greater than 100 µM. The TGI in assay [6], in [7] and in assay [8] was greater than 100 µM throughout.
